Experimental data: patent publication US8389744B1, “TTPO (5 6,7-trithiapentacene-13-one) and its derivatives: a new class of thermally stable, photooxidatively resistant organic semiconductors” (University of New Hampshire, priority 2011, dated 2013)

Assays:
Thermal stability = type: physicochemical; conditions: stable up to and including this temperature
[1] = Solubility in organic solvents; type: physicochemical

**Q.** For O=C1c2cc3ccccc3c3c2C2=S(S3)Sc3c2c1cc1ccccc31 [TTPO, 5,6,7-Trithiapentacene-13-one], which thermal stability (Thermal stability) is on record?
**A.** Its thermal stability is no more than 450 °C.

**Q.** And the solubility [1]?
**A.** Its solubility is “soluble in a variety of organic solvents”.
